Tests used:
Type in all cases: functional, cell-based
[1] = system: HT-29; assay: In vitro cytotoxic activity against human tumor cell line HT-29 after incubation for 96 hours; settings: HT-29, 96 h
[2] = system: SK-OV-3; assay: In vitro cytotoxic activity against human tumor cell line SKOV-3 after incubation for 96 hours; settings: SK-OV-3, 96 h
[3] = system: A2780; assay: In vitro cytotoxic activity against human tumor cell line A2780 after incubation for 96 hours; settings: A2780, 96 h
[4] = system: CH1; assay: In vitro cytotoxic activity against human tumor cell line CH1 after incubation for 96 hours; settings: CH1, 96 h
[5] = system: A2780; assay: In vitro cytotoxic activity against human tumor cell line A2780CisR after incubation for 96 hours; settings: A2780, 96 h
[6] = system: K562; assay: In vitro cytotoxic activity against human leukemic cell line K562 after incubation for 1 hour; settings: K562, 1 h

Row | SMILES | IC50 [1] [µM] | IC50 [2] [µM] | IC50 [3] [µM] | IC50 [4] [µM] | IC50 [5] [µM] | IC50 [6] [µM]
1 | COc1cc(C)c2ccc(O)c(C(=O)O[C@@H]3C(=O)C=C[C@H]3O)c2c1 | 13 | 7.2 | 9.4 | 11 | 9 | 4.5
2 | O=C(O[C@@H]1C(=O)C(Br)=C[C@H]1O)c1c(O)ccc2ccccc12 | > 25 | 9.4 | 9.4 | 11 | 13 | 5
3 | O=C(O[C@@H]1C=C(Br)C(=O)[C@H]1O)c1c(O)ccc2ccccc12 | > 25 | 11 | 10 | 11 | 17.5 | 3.5
4 | O=C(O[C@@H]1C=C[C@H](O)[C@H]1O)c1c(O)ccc2ccccc12 | – | – | – | – | – | > 100
5 | O=C(O[C@@H]1C(=O)C=C[C@H]1O)c1c(O)ccc2ccccc12 | 12 | 3.1 | 3.7 | 5.8 | 9.4 | 4
6 | O=C(O[C@H]1[C@H](O)C=C[C@@H]1O)c1c(O)ccc2ccccc12 | – | – | – | – | – | > 100
7 | COc1cc(C)c2ccc(O)c(C(=O)O[C@@H]3C=CC(=O)[C@H]3O)c2c1 | 11 | 2.5 | 2.5 | 2.5 | 4 | 5
8 | O=C(O[C@@H]1C=CC(=O)[C@H]1O)c1c(O)ccc2ccccc12 | 12 | 2.3 | 2.7 | 4 | 8.6 | 6
9 | COc1cc(C)c2ccc(O)c(C(=O)O[C@H]3[C@H](O)C=C[C@@H]3O)c2c1 | – | – | – | – | – | > 100
10 | COc1cc(C)c2ccc(O)c(C(=O)O[C@@H]3C=C[C@H](O)[C@H]3O)c2c1 | – | – | – | – | – | > 100

Source: ChEMBL document CHEMBL1144956, “Chemical synthesis and cytotoxicity of dihydroxylated cyclopentenone analogues of neocarzinostatin chromophore” (Bioorg Med Chem Lett, 2003)
